One assay deals with Pseudoperonospora cubensis. Description: Cucumber downy mildew (CDM) control test. Format: in vivo. The settings on record: Table 8: D-tagatose liquid preparation with assistant (5 parts), 10-fold dilution (D-tagatose 0.5%+assistant 0.5%); improvement vs D-tagatose only.
As for `OC[C@H]1O[C@H](O[C@H]2[C@H](O)[C@@H](O)C(O)O[C@@H]2CO)[C@H](O)[C@@H](O)[C@@H]1O` (mixture of isomers) [Maltose], the “Evaluation Score CDM” value is listed as 1 (Improvement in preventive value of 1 to less than 10).

Regarding `C[N+](C)(C)CC(O)CC(=O)[O-]` (racemic) [DL-carnitine], the “Evaluation Score CDM” value is on record as 2 (Improvement in preventive value of 10 to less than 20).

Turning to `CC(=O)O` [Acetic acid], the “Evaluation Score CDM” value is 1 (Improvement in preventive value of 1 to less than 10).

As for `Nc1ncnc2[nH]cnc12` [Adenine], the “Evaluation Score CDM” value amounted to 0.

Take `Nc1ncnc2c1ncn2[C@@H]1O[C@H](CO)[C@@H](O)[C@H]1O` [Adenosine]: the “Evaluation Score CDM” value is given as 0.

Consider `OC[C@@H](O)[C@@H](O)[C@@H](O)[C@@H](O)CO` [Allitol], for which the “Evaluation Score CDM” value is on record as 2 (Improvement in preventive value of 10 to less than 20).

On to `O=C[C@H](O)[C@@H](O)[C@H](O[C@@H]1O[C@H](CO)[C@@H](O)[C@H](O)[C@H]1O)[C@H](O)CO` [Cellobiose], for which the “Evaluation Score CDM” value is listed as 1 (Improvement in preventive value of 1 to less than 10).

On to `Nc1ccn([C@@H]2O[C@H](CO)[C@@H](O)[C@H]2O)c(=O)n1` [Cytidine], for which the “Evaluation Score CDM” value is 1 (Improvement in preventive value of 1 to less than 10).

For `Nc1cc[nH]c(=O)n1` [Cytosine], the “Evaluation Score CDM” value amounted to 0.

For the compound `OC[C@H]1OC(O)[C@@H](O)[C@H](O)[C@@H]1O` (stereo partly drawn) [D-altrose], the “Evaluation Score CDM” value is recorded as 4 (Improvement in preventive value of 30 to less than 40).

For `O=C[C@@H](O)[C@H](O)[C@H](O)CO` [D-arabinose], the “Evaluation Score CDM” value is given as 1 (Improvement in preventive value of 1 to less than 10).

For the compound `O=C(CO)[C@@H](O)[C@H](O)[C@H](O)CO` [D-fructose], the “Evaluation Score CDM” value is 2 (Improvement in preventive value of 10 to less than 20).

With `C[C@@H](O)[C@H](O)[C@H](O)[C@@H](O)C=O` [D-fucose], the “Evaluation Score CDM” value was 2 (Improvement in preventive value of 10 to less than 20).

For the compound `O=C[C@H](O)[C@@H](O)[C@@H](O)[C@H](O)C(=O)O` [D-galacturonic acid], the “Evaluation Score CDM” value is given as 3 (Improvement in preventive value of 20 to less than 30).

Consider `O=C1O[C@H](CO)[C@@H](O)[C@H](O)[C@H]1O` [D-gluconolactone], for which the “Evaluation Score CDM” value is given as 2 (Improvement in preventive value of 10 to less than 20).

As for `O=C[C@H](O)CO` [D-glyceraldehyde], the “Evaluation Score CDM” value is recorded as 4 (Improvement in preventive value of 30 to less than 40).

For the compound `OC[C@@H](O)[C@@H](O)[C@H](O)[C@H](O)CO` [D-mannitol], the “Evaluation Score CDM” value was 1 (Improvement in preventive value of 1 to less than 10).

`O=C[C@H](O)[C@H](O)[C@H](O)CO` [D-ribose]: the “Evaluation Score CDM” value was 2 (Improvement in preventive value of 10 to less than 20).

`OC[C@@H](O)[C@@H](O)[C@H](O)[C@@H](O)CO` [D-sorbitol]: the “Evaluation Score CDM” value is 1 (Improvement in preventive value of 1 to less than 10).

As to `O=C[C@@H](O)[C@@H](O)[C@@H](O)[C@H](O)CO` [D-talose], the “Evaluation Score CDM” value is reported as 2 (Improvement in preventive value of 10 to less than 20).

For `O=C[C@H](O)[C@@H](O)[C@H](O)CO` [D-xylose], the “Evaluation Score CDM” value was 1 (Improvement in preventive value of 1 to less than 10).

In the case of `O=C(CO)[C@@H](O)[C@H](O)CO` [D-xylulose], the “Evaluation Score CDM” value is reported as 1 (Improvement in preventive value of 1 to less than 10).

Turning to `O=CC[C@H](O)[C@H](O)CO` [Formula 2-deoxy-D-ribose, 2-deoxy-D-ribose], the “Evaluation Score CDM” value is 4 (Improvement in preventive value of 30 to less than 40).

As to `Nc1nc2c(ncn2[C@@H]2O[C@H](CO)[C@@H](O)[C@H]2O)c(=O)[nH]1` [Guanosine], the “Evaluation Score CDM” value came to 0.

For `NC(=O)C[C@H](N)C(=O)O` [L-asparagine], the “Evaluation Score CDM” value is 1 (Improvement in preventive value of 1 to less than 10).

As for `N[C@@H](CS)C(=O)O` [L-cysteine], the “Evaluation Score CDM” value is on record as 3 (Improvement in preventive value of 20 to less than 30).

Regarding `C[C@@H]1OC(O)[C@@H](O)[C@H](O)[C@@H]1O` (stereo partly drawn) [L-fucose], the “Evaluation Score CDM” value is 2 (Improvement in preventive value of 10 to less than 20).

With `NC(=O)CC[C@H](N)C(=O)O` [L-glutamine], the “Evaluation Score CDM” value is reported as 1 (Improvement in preventive value of 1 to less than 10).

Regarding `N[C@@H](Cc1c[nH]cn1)C(=O)O` [L-histidine], the “Evaluation Score CDM” value is recorded as 3 (Improvement in preventive value of 20 to less than 30).

For `CC[C@H](C)[C@H](N)C(=O)O` [L-isoleucine], the “Evaluation Score CDM” value is recorded as 1 (Improvement in preventive value of 1 to less than 10).

Regarding `CSCC[C@H](N)C(=O)O` [L-methionine], the “Evaluation Score CDM” value is listed as 2 (Improvement in preventive value of 10 to less than 20).

Take `N[C@@H](Cc1ccccc1)C(=O)O` [L-phenylalanine]: the “Evaluation Score CDM” value was 3 (Improvement in preventive value of 20 to less than 30).

For the compound `O=C(O)[C@@H]1CCCN1` [L-proline], the “Evaluation Score CDM” value is 1 (Improvement in preventive value of 1 to less than 10).

In the case of `C[C@H](O)[C@H](O)[C@@H](O)[C@@H](O)C=O` [L-rhamnose], the “Evaluation Score CDM” value was 2 (Improvement in preventive value of 10 to less than 20).

In the case of `N[C@@H](CO)C(=O)O` [L-serine], the “Evaluation Score CDM” value is given as 1 (Improvement in preventive value of 1 to less than 10).

With `C[C@@H](O)[C@H](N)C(=O)O` [L-threonine], the “Evaluation Score CDM” value is 1 (Improvement in preventive value of 1 to less than 10).

On to `CC(O)C(=O)O` (centres unmarked) [Lactic acid], for which the “Evaluation Score CDM” value worked out at 0.

Consider `O=C(O)CC(=O)O` [Malonic acid], for which the “Evaluation Score CDM” value is given as 0.

On to `O=C(CO)[C@@H](O)[C@H](O[C@H]1O[C@H](CO)[C@@H](O)[C@H](O)[C@H]1O)[C@H](O)CO` [Maltulose], for which the “Evaluation Score CDM” value is listed as 1 (Improvement in preventive value of 1 to less than 10).

`OC[C@@H](O)[C@@H](O)CO` [Meso-erythritol]: the “Evaluation Score CDM” value is on record as 3 (Improvement in preventive value of 20 to less than 30).

As for `OC[C@H]1O[C@H](OC[C@H]2O[C@H](O[C@]3(CO)O[C@H](CO)[C@@H](O)[C@@H]3O)[C@H](O)[C@@H](O)[C@@H]2O)[C@H](O)[C@@H](O)[C@H]1O` [Raffinose], the “Evaluation Score CDM” value is reported as 4 (Improvement in preventive value of 30 to less than 40).

On to `O=C[C@H](O)[C@@H](O)[C@H](O)[C@H](O)C(=O)[O-].[Na+]` [Sodium D-glucuronate], for which the “Evaluation Score CDM” value is 1 (Improvement in preventive value of 1 to less than 10).

Regarding `OC[C@H]1O[C@@](CO)(O[C@H]2O[C@H](CO)[C@@H](O)[C@H](O)[C@H]2O)[C@@H](O)[C@@H]1O` [Sucrose], the “Evaluation Score CDM” value was 1 (Improvement in preventive value of 1 to less than 10).

For the compound `OC[C@H]1O[C@H](O[C@H]2O[C@H](CO)[C@@H](O)[C@H](O)[C@H]2O)[C@H](O)[C@@H](O)[C@@H]1O` [Trehalose], the “Evaluation Score CDM” value is listed as 3 (Improvement in preventive value of 20 to less than 30).

With `O=c1cc[nH]c(=O)[nH]1` [Uracil], the “Evaluation Score CDM” value is recorded as 1 (Improvement in preventive value of 1 to less than 10).

With `O=c1ccn([C@@H]2O[C@H](CO)[C@@H](O)[C@H]2O)c(=O)[nH]1` [Uridine], the “Evaluation Score CDM” value came out at 0.

On to `OC[C@@H](O)[C@H](O)[C@@H](O)CO` [Xylitol], for which the “Evaluation Score CDM” value is 2 (Improvement in preventive value of 10 to less than 20).

Take D-glucose: the “Evaluation Score CDM” value was 1 (Improvement in preventive value of 1 to less than 10).

Turning to D-mannose, the “Evaluation Score CDM” value is recorded as 2 (Improvement in preventive value of 10 to less than 20).

L-alanine: the “Evaluation Score CDM” value is 2 (Improvement in preventive value of 10 to less than 20).

For L-leucine, the “Evaluation Score CDM” value is recorded as 3 (Improvement in preventive value of 20 to less than 30).

Regarding L-valine, the “Evaluation Score CDM” value was 3 (Improvement in preventive value of 20 to less than 30).

On to Lactose, for which the “Evaluation Score CDM” value is listed as 1 (Improvement in preventive value of 1 to less than 10).

Consider Stachyose, for which the “Evaluation Score CDM” value is recorded as 1 (Improvement in preventive value of 1 to less than 10).

The assay is the same for the next values; noted with them: in vivo.
Turning to `O=C(O)c1ccccc1` [Benzoic acid], the “Evaluation Score CDM” value is listed as 0.

For `O=C(O)CCCC(=O)O` [Glutaric acid], the “Evaluation Score CDM” value stood at 0.

On to `Nc1nc2nc[nH]c2c(=O)[nH]1` [Guanine], for which the “Evaluation Score CDM” value is recorded as 0.

Another assay concerns Plasmopara viticola. As to the kind of experiment: Grape vine downy mildew (VDM) control test. Format: in vivo. As to conditions: Table 9: monosaccharide 10% liquid preparation, no assistant, 10-fold dilution (monosaccharide 1%).
For `O=C[C@@H](O)[C@@H](O)[C@@H](O)[C@H](O)CO` [D-talose], the “preventive value VDM” value is on record as “(0)”.

A further assay deals with Sphaerotheca cucurbitae. Description: Cucumber powdery mildew (CPM) control test. The settings on record: Table 9: monosaccharide 10% liquid preparation, no assistant, 10-fold dilution (monosaccharide 1%). Format: in vivo.
As to `O=C[C@@H](O)[C@@H](O)[C@@H](O)[C@H](O)CO` [D-talose], the “preventive value CPM” value is “(17)”.

Regarding D-mannose, the “preventive value CPM” value was “(33)”.

The next assay deals with Botrytis cinerea. As to the kind of experiment: Tomato gray mold (GM) control test. Format: in vivo. The settings on record: Table 9: monosaccharide 10% liquid preparation, no assistant, 10-fold dilution (monosaccharide 1%). Here is the method: (GM: Gray Mold) Test plants (tomato variety: Oogata Fukuju) were planted followed by cultivating until three first leaves appeared. In the test, dilutions (5 ml/pot) obtained by diluting with distilled water so that each formula reached a prescribed concentration were sprayed. After inoculating the seedlings one day after spraying by spraying with 1×10^7 organisms/ml of conidia of Botrytis cinerea, the seedlings were allowed to stand for about 48 hours in an inoculation room at a room temperature of 20° C. to 23° C. to promote the onset of disease. Disease development was investigated 2 days after inoculation, and the effects thereof were evaluated. Disease development was evaluated using the following indicators for disease control tests evaluated according to the methods described above. Furthermore, preventive values were calculated based on the disease development.
On to D-mannose, for which the “preventive value GM” value was “(16)”.

A further assay relates to Magnaporthe grisea.
Assay: not given
As to conditions: Table 9: monosaccharide 10% liquid preparation, no assistant, 10-fold dilution (monosaccharide 1%). Format: in vivo.
Consider `O=C[C@@H](O)[C@@H](O)[C@@H](O)[C@H](O)CO` [D-talose], for which the “preventive value B” value is listed as “(50)”.

On to D-mannose, for which the “preventive value B” value is on record as “(17)”.

Another assay concerns Rhizoctonia solani AGI-IA. As to the kind of experiment: Rice sheath blight (SB) control test. As to conditions: Table 9: monosaccharide 10% liquid preparation, no assistant, 10-fold dilution (monosaccharide 1%). Format: in vivo. The protocol: (SB: Sheath Blight) Test plants (rice variety: Sachikaze) were planted followed by cultivating until the third leaf appeared. In the test, dilutions (5 ml/pot) obtained by diluting with distilled water so that each formula reached a prescribed concentration were sprayed. After inoculating the seedlings one day after spraying with clumps of Rhizoctonia solani AGI-IA cultured for 14 days in oat medium, the seedlings were allowed to stand for about 24 hours in an inoculation room at a room temperature of 28° C. to promote the onset of disease. Disease development was investigated 14 days after inoculation, and the effects thereof were evaluated. Disease development was evaluated using the following indicators for disease control tests evaluated according to the methods described above. Furthermore, preventive values were calculated based on the disease development.
Consider `O=C[C@@H](O)[C@@H](O)[C@@H](O)[C@H](O)CO` [D-talose], for which the “preventive value SB” value is given as “(30)”.

In the case of D-mannose, the “preventive value SB” value is recorded as “(60)”.

These data come from patent US9861099B2, “Composition for enhancing plant disease control effect of monosaccharide” (MITSUI CHEMICALS AGRO, INC., priority 2013, dated 2018).
